From US20260013501A1, “HERBICIDAL DERIVATIVES” (SYNGENTA CROP PROTECTION AG, priority 2022, published 2026)

What was measured:
Type in all cases: in vivo
[1] = system: Echinochloa crus-galli (ECHCG); test: Post-emergence Test (Table B2), ECHCG; design: key: 5-point damage scale: 5=81-100%, 4=61-80%, 3=41-60%, 2=21-40%, 1=0-20%; details: evaluated after 13 days
Outline: (§1)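 Score: % damage at 13 d on a 5-point scale (5=81-100%; 4=61-80%; 3=41-60%; 2=21-40%; 1=0-20%). Seeds sown in pots, sprayed with test article in acetone/water 50:50 + 0.5% Tween 20; rate in g/ha. Glasshouse 24/16 °C, 14 h light, 65% RH, watered twice daily.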

[2] = system: Amaranthus retoflexus (AMARE); test: Pre-emergence Test (Table B1), AMARE; details: evaluated after 13 days
Setaria faberi (SETFA) [3] = test: Pre-emergence Test (Table B1), SETFA; details: evaluated after 13 days
[4] = system: Echinochloa crus-galli (ECHCG); test: Pre-emergence Test (Table B1), ECHCG; details: evaluated after 13 days
Setaria faberi (SETFA) [5] = test: Post-emergence Test (Table B2), SETFA; design: key: five-point scale: 5=81-100%, 4=61-80%, 3=41-60%, 2=21-40%, 1=0-20% damage; details: rate 250 g/Ha, evaluated after 13 days
Procedure: (§2) Seeds of a variety of test species are sown in standard soil in pots (Ipomoea hederacea (IPOHE), Zea mays (ZEAMX), Echinochloa crus-galli (ECHCG), Amaranthus palmeri (AMAPA), (Amaranthus retoflexus (AMARE), and (Setaria faberi (SETFA)). After 8 days cultivation under controlled conditions in a glasshouse (at 24° C./16° C., day/night; 14 hours light; 65% humidity), the plants are sprayed with an aqueous spray solution derived from the formulation of the technical active ingredient in acetone/water (50:50) solution containing 0.5% Tween 20 (polyoxyethelyene sorbitan monolaurate, CAS RN 9005-64-5). Rate of application is shown in g/ha in the tables below. The test plants are then grown in a glasshouse under controlled conditions in a glasshouse (at 24° C./16° C., day/night; 14 hours light; 65% humidity) and watered twice daily. After 13 days the test is evaluated for the percentage damage caused to the plant. The biological activities are shown in the following table on a five-point scale (5=81-100%; 4=61-80%; 3=41-60%; 2=21-40%; 1=0-20%; -=not tested).

Zea mays (ZEAMX) [6] = test: Post-emergence Test (Table B2), ZEAMX; design: key: 5-point damage scale: 5=81-100%, 4=61-80%, 3=41-60%, 2=21-40%, 1=0-20%; details: evaluated after 13 days
Outline: as §1

[7] = system: Ipomoea hederacea (IPOHE); test: Pre-emergence Test (Table B1), IPOHE; details: evaluated after 13 days
[8] = system: Amaranthus palmeri (AMAPA); test: Pre-emergence Test (Table B1), AMAPA; details: Rate 1000 g/Ha, evaluated after 13 days
Zea mays (ZEAMX) [9] = test: Pre-emergence Test (Table B1), ZEAMX; details: Rate 1000 g/Ha, evaluated after 13 days
[10] = system: Ipomoea hederacea (IPOHE); test: Post-emergence Test (Table B2), IPOHE; design: key: five-point scale: 5=81-100%, 4=61-80%, 3=41-60%, 2=21-40%, 1=0-20% damage; details: rate 1000 g/Ha, evaluated after 13 days
Procedure: as §2

[11] = system: Amaranthus retoflexus (AMARE); test: Post-emergence Test (Table B2), AMARE; design: key: five-point scale: 5=81-100%, 4=61-80%, 3=41-60%, 2=21-40%, 1=0-20% damage; details: rate 1000 g/Ha, evaluated after 13 days
Outline: as §1

CCn1c(Cc2ccccc2C(F)(F)F)cc(=O)c(C(=O)O)c1-c1ccc(Cl)c(Cl)c1 [Compound 11, 2-(3,4-dichlorophenyl)-1-ethyl-4-oxo-6-[[2-(trifluoromethyl)phenyl]methyl]pyridine-3-carboxylic acid]
0: percentage damage caused to the plant, ECHCG ([1]; rate 250 g/Ha) | Pre-emergence Test, percentage damage caused to the plant (five-point scale), AMARE ([2]; Rate 250 g/Ha) | Pre-emergence Test, percentage damage caused to the plant (five-point scale), SETFA (Setaria faberi (SETFA) [3]; Rate 250 g/Ha) | Pre-emergence Test, percentage damage caused to the plant (five-point scale), ECHCG ([4]; Rate 250 g/Ha) | percentage damage caused to the plant, SETFA (Setaria faberi (SETFA) [5]) | percentage damage caused to the plant, ZEAMX (Zea mays (ZEAMX) [6]; rate 250 g/Ha) | Pre-emergence Test, percentage damage caused to the plant (five-point scale), IPOHE ([7]; Rate 250 g/Ha)

CCn1c(Cc2ccc(Cl)cc2F)cc(=O)c(C(=O)O)c1-c1ccc(Cl)c(Cl)c1 [Compound 79, 6-[(4-chloro-2-fluoro-phenyl)methyl]-2-(3,4-dichlorophenyl)-1-ethyl-4-oxo-pyridine-3-carboxylic acid]
0: Pre-emergence Test, percentage damage caused to the plant (five-point scale), AMARE ([2]; Rate 1000 g/Ha) | Pre-emergence Test, percentage damage caused to the plant (five-point scale), AMAPA [8] | Pre-emergence Test, percentage damage caused to the plant (five-point scale), SETFA (Setaria faberi (SETFA) [3]; Rate 1000 g/Ha) | Pre-emergence Test, percentage damage caused to the plant (five-point scale), ECHCG ([4]; Rate 1000 g/Ha) | Pre-emergence Test, percentage damage caused to the plant (five-point scale), ZEAMX (Zea mays (ZEAMX) [9]) | Pre-emergence Test, percentage damage caused to the plant (five-point scale), IPOHE ([7]; Rate 1000 g/Ha)

CCn1c(Cc2ccc(O)nn2)cc(=O)c(C(=O)O)c1-c1ccc(Cl)c(Cl)c1 [Compound 107, 2-(3,4-dichlorophenyl)-1-ethyl-6-[(6-hydroxypyridazin-3-yl)methyl]-4-oxo-pyridine-3-carboxylic acid]
0: percentage damage caused to the plant, IPOHE [10] | percentage damage caused to the plant, ECHCG ([1]; rate 1000 g/Ha) | percentage damage caused to the plant, AMARE [11] | Pre-emergence Test, percentage damage caused to the plant (five-point scale), AMARE ([2]; Rate 1000 g/Ha) | Pre-emergence Test, percentage damage caused to the plant (five-point scale), AMAPA [8] | Pre-emergence Test, percentage damage caused to the plant (five-point scale), SETFA (Setaria faberi (SETFA) [3]; Rate 1000 g/Ha) | Pre-emergence Test, percentage damage caused to the plant (five-point scale), ECHCG ([4]; Rate 1000 g/Ha) | Pre-emergence Test, percentage damage caused to the plant (five-point scale), ZEAMX (Zea mays (ZEAMX) [9]) | percentage damage caused to the plant, ZEAMX (Zea mays (ZEAMX) [6]; rate 1000 g/Ha) | Pre-emergence Test, percentage damage caused to the plant (five-point scale), IPOHE ([7]; Rate 1000 g/Ha)

CCn1c(Cc2ccc(C)nn2)cc(=O)c(C(=O)O)c1-c1ccc(Cl)c(Cl)c1 [Compound 139, 2-(3,4-dichlorophenyl)-1-ethyl-6-[(6-methylpyridazin-3-yl)methyl]-4-oxo-pyridine-3-carboxylic acid]
0: percentage damage caused to the plant, ECHCG ([1]; rate 250 g/Ha) | Pre-emergence Test, percentage damage caused to the plant (five-point scale), SETFA (Setaria faberi (SETFA) [3]; Rate 250 g/Ha) | percentage damage caused to the plant, ZEAMX (Zea mays (ZEAMX) [6]; rate 250 g/Ha)
